Where a name gives a salt, the structure may show the parent alone.
Tests used:
[1] = system: Acute hypoxia in mice; survival of the brain; experiment: Acute hypoxia in mice (hypobaric); brain survival time to final respiratory gasp; assay type: in vivo, Male CD1 mice (Charles River); details: 30 minutes before hypoxia, mice; for change in vivo at 300 mg/kg: 300 mg/kg I.P.
Protocol: (§1) The compounds of the present invention were tested in respect of their capacity to prolong the survival of cerebral tissue during acute hypoxia in mice, or to maintain the level of tissue energy-rich compounds in rats subjected to a fall in the oxygen supply [Pharmacology of Cerebral Ischemia, p. 334-339 (1968) Elsevier Science Publishers B.V., J. Krieglstein ed.]. […] Forsch. Drug. Res. (1986), 36 II No. 9, p. 1314-1320].
The survival of the brain is assessed by measuring the time at which the final respiratory gasp is observed.
The survival time of a treated batch is compared with that of a control batch receiving only the solvent.
The percentage increase in the survival time after the animals are treated with the compounds of the invention is shown in Table II.

[2] = system: brain energy-rich compounds (ATP, ADP, AMP); experiment: Acute hypoxia in rats; protection of tissue energy-rich compounds in brain (ATP, energy content); assay type: in vivo, Male Fischer 344 rats (Charles River); details: 3% oxygen for 2 minutes
Protocol: as §1
Whereas the control rats breath a gaseous mixture containing 21% of oxygen and 79% of nitrogen, the rats subjected to hypoxia breath a mixture of 3% oxygen and 97% nitrogen for 2 minutes.
At the end of the hypoxic period, the animals are rapidly sacrificed by total immersion in liquid nitrogen. The frozen brain is removed and the energy-rich compounds (ATP, ADP, AMP) are extracted and assayed by the luciferin luminescence method.
The tissue energy content (EC) is calculated according to ATKINSON's formula: [formula]

[3] = Mus musculus, ip, 100 mg/kg I.P., read-out: Percentage increase in the survival time
[4] = Mus musculus, ip, read-out: Percentage increase in the survival time
[5] = Mus musculus, ip, 10 mg/kg I.P., read-out: Percentage increase in the survival time
[6] = Mus musculus, ip, 30 mg/kg I.P., read-out: Percentage increase in the survival time

Structure (SMILES)	change in vivo at 100 mg/kg [1, 3]	change in vivo at 30 mg/kg [1, 6]	also measured
O=C(O)CC1(c2ccccc2)C(=O)Oc2ccc(Cl)cc21 (stereo not shown) [Example 1, 2-(5-Chloro-2,3-dihydro-2-oxo-3-phenyl-3-benzofuranyl)acetic acid]	46%	–	% inhibition of the effects of hypoxia, ATP ([2]; 100 mg/kg I.P.): 54%; % inhibition of the effects of hypoxia, EC (tissue energy content) ([2]; 100 mg/kg I.P.): 61.7%
O=C(O)CC1(c2ccccc2)C(=O)Oc2ccc(F)cc21 (stereo not shown) [Example 2, 2-(2,3-Dihydro-5-fluoro-2-oxo-3-phenyl-3-benzofuranyl)acetic acid]	38%	–	–
O=C(O)CC1(c2ccccc2)C(=O)Oc2ccccc21 (stereo not shown) [Example 3, 2-(2,3-Dihydro-2-oxo-3-phenyl-3-benzofuranyl) acetic acid]	29%	–	–
O=C(O)CC1(c2ccc(Cl)cc2)C(=O)Oc2ccccc21 (stereo not shown) [Example 4, 2-[3-(4-Chlorophenyl)-2,3-dihydro-2-oxo-3-benzofuranyl)acetic acid]	17%	–	–
O=C(O)CC1(c2ccccc2)C(=O)Oc2ccc(O)cc21 (stereo not shown) [Example 5, 2-(2,3-Dihydro-5-hydroxy-2-oxo-3-phenyl-3-benzofuranyl)acetic acid]	69%	–	–
COc1ccc2c(c1)C(CC(=O)O)(c1ccccc1)C(=O)O2 (stereo not shown) [Example 6, 2-(2,3-Dihydro-5-methoxy-2-oxo-3-phenyl-3-benzofuranyl)acetic acid]	41%	–	–
O=C(CC1(c2ccccc2)C(=O)Oc2ccc(O)cc21)OCc1ccccc1 (stereo not shown) [Example 7]	14%	–	change in vivo at 300 mg/kg [1, 4]: 156%
CCOC(=O)CC1(c2ccccc2)C(=O)Oc2ccc(Cl)cc21 (stereo not shown) [Example 8, 2-(5-Chloro-2,3-dihydro-2-oxo-3-phenyl-3-benzofuranyl)acetic acid ethyl ester]	52%	–	–
O=C(CC1(c2ccccc2)C(=O)Oc2ccc(Cl)cc21)N1CCN(c2ccc(C(F)(F)F)cn2)CC1 (stereo not shown) [Example 9, 2-(5-Chloro-2,3-dihydro-2-oxo-3-phenyl-3-benzofuranyl)-1-[4-(5-trifluoromethyl-2-pyridyl)piperazinyl]-1-oxoethane]	–	–	Percentage increase in the survival time ([1]; 3 mg/kg I.P.): +65%; Percentage increase in the survival time ([1]; 10 mg/kg I.P.): +82%; Percentage increase in the survival time ([1]; 30 mg/kg I.P.): +77%; Percentage increase in the survival time ([1]; 100 mg/kg I.P.): greater than 180%; Percentage increase in the survival time ([1]; 100 mg/kg I.P., listed as Ex. 9): +183%; % inhibition of the effects of hypoxia, ATP ([2]; 30 mg/kg I.P.): 65.6%; % inhibition of the effects of hypoxia, EC (tissue energy content) ([2]; 30 mg/kg I.P.): 60.1%
CCN(CC)C(=O)CC1(c2ccccc2)C(=O)Oc2ccc(Cl)cc21 (stereo not shown) [Example 10, N,N-Diethyl-2-(5-chloro-2,3-dihydro-2-oxo-3-phenyl-3-benzofuranyl)acetamide]	97%	–	–
CC(C)C[C@@H](C(=O)O)N(C)C(=O)CC1(c2ccccc2)C(=O)Oc2ccc(Cl)cc21 (stereo partly shown) [Example 11, N-Methyl-N-[2-(5-chloro-2,3-dihydro-2-oxo-3-phenyl-3-benzofuranyl)acetyl]leucine]	159%	–	–
CCN(CC)CCN(C)C(=O)CC1(c2ccccc2)C(=O)Oc2ccc(Cl)cc21 (stereo not shown) [Example 12, N-Methyl-N-diethylaminoethyl-2-(5-chloro-2,3-dihydro-2-oxo-3-phenyl-3-benzofuranyl)acetamide hydrochloride]	> 180%	84%	change in vivo at 3 mg/kg ([1]; Mus musculus, ip, 3 mg/kg I.P., read-out: Percentage increase in the survival time): 32%; change in vivo at 10 mg/kg [1, 5]: 41%
O=C(O)[C@@H]1CCCN1C(=O)CC1(c2ccccc2)C(=O)Oc2ccc(Cl)cc21 (stereo partly shown) [Example 13, N-[2-(5-chloro-2,3-dihydro-2-oxo-3-phenyl-3-benzofuranyl)acetyl]proline]	8%	–	–
O=C(CC1(c2ccccc2)C(=O)Oc2ccc(Cl)cc21)N1CCOCC1 (stereo not shown) [Example 14, 2-(5-Chloro-2,3-dihydro-2-oxo-3-phenyl-3-benzofuranyl)-1-morpholino-1-oxoethane]	88%	–	–
O=C(CC1(c2ccccc2)C(=O)Oc2ccc(Cl)cc21)N1CCN(CCO)CC1 (stereo not shown) [Example 15, 2-(5-Chloro-2,3-dihydro-2-oxo-3-phenyl-3-benzofuranyl)-1-[4-(2-hydroxyethyl)piperazinyl]-1-oxoethane hydrochloride]	> 130%	41%	change in vivo at 10 mg/kg [1, 5]: 34%; change in vivo at 200 mg/kg ([1]; Mus musculus, ip, 200 mg/kg I.P., read-out: Percentage increase in the survival time): 203%
O=C(CC1(c2ccccc2)C(=O)Oc2ccc(Cl)cc21)N1CCN(Cc2ccccc2)CC1 (stereo not shown) [Example 17, 2-(5-Chloro-2,3-dihydro-2-oxo-3-phenyl-3-benzofuranyl)-1-(4-benzylpiperazinyl)-1-oxoethane]	66%	40%	–
O=C(CC1(c2ccccc2)C(=O)Oc2ccc(Cl)cc21)N1CCN(c2cccc(C(F)(F)F)c2)CC1 (stereo not shown) [Example 18, 2-(5-Chloro-2,3-dihydro-2-oxo-3-phenyl-3-benzofuranyl)-1-[4-(3-trifluoromethylphenyl)piperazinyl)-1-oxoethane hydrochloride]	88%	53%	change in vivo at 10 mg/kg [1, 5]: 41%; change in vivo at 300 mg/kg [1, 4]: 103%
Cc1cccc(N2CCN(C(=O)CC3(c4ccccc4)C(=O)Oc4ccc(Cl)cc43)CC2)c1 (stereo not shown) [Example 19, 2-(5-Chloro-2,3-dihydro-2-oxo-3-phenyl-3-benzofuranyl)-1-[4-(3-methylphenyl)piperazinyl]-1oxoethane hydrochloride]	76%	–	–
CN(CC(=O)O)C(=O)CC1(c2ccccc2)C(=O)Oc2ccccc21 (stereo not shown) [Example 21, N-Methyl-N-[2-(2,3-dihydro-2-oxo-3-phenyl-3-benzofuranyl)acetyl]glycine]	14%	–	–
O=C(CC1(c2ccccc2)C(=O)Oc2ccccc21)N1CCN(Cc2ccc3c(c2)OCO3)CC1 (stereo not shown) [Example 22, 2-(2,3-Dihydro-2-oxo-3-phenyl-3-benzofuranyl)-1-[4-(3,4-methylenedioxybenzyl)piperazinyl]-1-oxoethane hydrochloride]	126%	42%	Percentage increase in the survival time ([1]; 100 mg/kg I.P., listed as Ex. 22, hydrochloride): +126%; change in vivo at 10 mg/kg [1, 5]: 11%
Cc1cccc(CN2CCN(C(=O)CC3C(=O)Oc4ccccc43)CC2)c1 (stereo not shown) [Example 25, 2-(2,3-Dihydro-2-oxo-3-benzofuranyl)-1-[4-(3-methylbenzyl)piperazinyl]-1-oxoethane hydrochloride]	–	–	% inhibition of the effects of hypoxia, ATP ([2]; 100 mg/kg I.P.): 50.5%; % inhibition of the effects of hypoxia, EC (tissue energy content) ([2]; 100 mg/kg I.P.): 52.6%
Cc1cccc(N2CCN(C(=O)CC3C(=O)Oc4ccc(Cl)cc43)CC2)c1 (stereo not shown) [Example 26, 2-(5-Chloro-2,3-dihydro-2-oxo-3-benzofuranyl)-1-[4-(3-methylphenyl)piperazinyl]-1-oxoethane hydrochloride]	> 130%	53%	change in vivo at 10 mg/kg [1, 5]: 52%; change in vivo at 300 mg/kg [1, 4]: 190%
O=C(CC1(c2ccccc2)C(=O)Oc2ccc(Cl)cc21)N1CCN(c2cc(C(F)(F)F)ccn2)CC1 (stereo not shown) [Example 27, 2-(5-Chloro-2,3-dihydro-2-oxo-3-phenyl-3-benzofuranyl)-1-[4-(4-trifluoromethyl-2-pyridyl)piperazinyl]-1-oxoethane]	76%	59%	change in vivo at 10 mg/kg [1, 5]: 36%
CN(C(=O)CC1(c2ccccc2)C(=O)Oc2ccc(Cl)cc21)[C@@H](Cc1ccccc1)C(=O)O (stereo partly shown) [Example 28, N-[2-(5-Chloro-2,3-dihydro-2-oxo-3-phenyl-3-benzofuranyl)acetyl]-N-methylphenylalanine]	90%	–	–
O=C(O)CN1CCN(C(=O)CC2(c3ccccc3)C(=O)Oc3ccc(Cl)cc32)CC1 (stereo not shown) [Example 29, 2-(5-Chloro-2,3-dihydro-2-oxo-3-phenyl-3-benzofuranyl)-1-(4-carboxymethylpiperazinyl)-1-oxoethane hydrochloride]	66%	32%	–
COc1cccc(C2CCCN(C(=O)CC3(c4ccccc4)C(=O)Oc4ccc(Cl)cc43)C2)c1 (stereo not shown) [Example 30, 2-(5-Chloro-2,3-dihydro-2-oxo-3-phenyl-3-benzofuranyl)-1-[3-(3-methoxyphenyl)piperidyl]-1-oxoethane]	103%	36%	change in vivo at 10 mg/kg [1, 5]: 32%
CCN1CCCC1CN(C)C(=O)CC1(c2ccccc2)C(=O)Oc2ccc(Cl)cc21 (stereo not shown) [Example 32, 2-(5-Chloro-2-oxo-3-phenyl-3-benzofuranyl)-1-[(1-ethylpyrrolidinyl)methyl]methylamino-1-oxoethanehydrochloride]	–	26%	–

From US4885299A, “2-(2,3-dihydro-2-oxo-3-benzofuranyl)acetic acids antihypoxic and nootropic effects having” (ADIR Et Cie, priority 1987, dated 1989)
